In patent US9150603B2, “2′-cyano substituted nucleoside derivatives and methods of use thereof useful for the treatment of viral diseases” (priority 2011, dated 2015):

Key:
replicon cells = experiment: Cytotoxicity in replicon cells (MTS assay); conditions: CC50, MTS assay, three days post dosing
replicon cells (1b-Con1) = experiment: Replicon activity assay (1b-Con1 replicon cells, real-time RT-PCR); assay type: cell-based, HCV; conditions: three days post-dosing
HCV replicon cells (1b) = experiment: Cell-based HCV replicon assay (replicon RNA level by Taqman real time PCR); conditions: HCV 1b replicon, cells harvested on day 3
Protocol: To measure cell-based anti-HCV activity of selected compounds of the present invention, replicon cells were seeded at 5000 cells/well in 96-well collagen I-coated Nunc plates in the presence of the test compound. […]. Cells were harvested on day 3 by the addition of 1× cell lysis buffer (Ambion cat #8721). The replicon RNA level was measured using real time PCR (Taqman assay). The amplicon was located in 5B. The PCR primers were: 5B.2F, […] (SEQ ID. NO. 1); 5B.2R, […] (SEQ ID. NO. 2); the probe sequence was FAM-labeled […] (SEQ ID. NO. 3). GAPDH RNA was used as endogenous control and was amplified in the same reaction as NSSB (multiplex PCR) using primers and VIC-labeled probe recommended by the manufacturer (PE Applied Biosystem). The real-time RT-PCR reactions were run on ABI PRISM 7900HT Sequence Detection System using the following program: 48° C. for 30 minutes, 95° C. for 10 minutes, 40 cycles of 95° C. for 15 sec, 60° C. for 1 minute. The ACT values (CT5B−CTGAPDH) were plotted against the concentration of test compound and fitted to the sigmoid dose-response model using XLfit4 (MDL). […]; Alternatively, to quantitate the absolute amount of replicon RNA, a standard curve was established by including serially diluted T7 transcripts of replicon RNA in the Taqman assay. All Taqman reagents were from […] Applied Biosystems. Such an assay procedure was described in detail in e.g. Malcolm et al., Antimicrobial Agents and Chemotherapy 50: 1013-1020 (2006).

[1] = target: T1, HCV NS5B RNA-dependent RNA polymerase (1b-BKΔ55) (Hepatitis C virus genotype 1b, UniProt P26663); experiment: Inhibition of HCV NS5B polymerase by nucleoside triphosphate analogs (radiolabeled nucleotide incorporation assay); assay type: biochemical
T1 construct: 5 nM NS5B (1b-BKΔ55) enzyme
T1 sequence (P26663 2420-2955 limits assumed, stated change not applied): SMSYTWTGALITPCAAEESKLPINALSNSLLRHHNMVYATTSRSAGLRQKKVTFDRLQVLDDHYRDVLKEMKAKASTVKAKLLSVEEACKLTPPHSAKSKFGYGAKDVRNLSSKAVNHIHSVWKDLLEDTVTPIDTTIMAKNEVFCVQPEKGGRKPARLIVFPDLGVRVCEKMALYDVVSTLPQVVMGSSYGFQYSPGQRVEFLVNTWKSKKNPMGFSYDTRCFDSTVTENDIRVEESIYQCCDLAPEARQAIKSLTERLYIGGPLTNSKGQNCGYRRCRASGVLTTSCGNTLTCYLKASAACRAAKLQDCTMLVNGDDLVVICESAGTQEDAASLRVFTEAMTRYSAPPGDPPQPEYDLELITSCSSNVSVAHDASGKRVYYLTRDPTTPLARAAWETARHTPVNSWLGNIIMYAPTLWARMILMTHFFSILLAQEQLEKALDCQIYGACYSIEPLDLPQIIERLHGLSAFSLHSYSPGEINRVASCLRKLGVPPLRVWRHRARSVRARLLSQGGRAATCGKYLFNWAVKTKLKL

C[C@H](NP(=O)(OC[C@H]1O[C@@H](n2ccc(=O)[nH]c2=O)[C@](C)(C#N)[C@@H]1O)Oc1ccccc1)C(=O)O[C@H](C)c1ccccc1 (some centres unmarked)
Cytotoxicity (replicon cells): >100 µM
EC50 (replicon cells (1b-Con1); Hepatitis C virus, 72 h): 34 µM

CC(C)OC(=O)[C@H](C)NP(=O)(OC[C@H]1O[C@@H](n2ccc(=O)[nH]c2=O)[C@](C)(C#N)[C@@H]1O)Oc1ccccc1 (some centres unmarked)
Cytotoxicity (replicon cells): >100 µM
EC50 (replicon cells (1b-Con1); Hepatitis C virus, 72 h): 8.3 µM

C[C@H](NP(=O)(OC[C@H]1O[C@@H](n2ccc(=O)[nH]c2=O)[C@](C)(C#N)[C@@H]1O)Oc1ccccc1)C(=O)OC1CCCCC1 (some centres unmarked)
EC50 (replicon cells (1b-Con1); Hepatitis C virus, 72 h): 2.4 µM

CCCOC(=O)[C@H](C)NP(=O)(OC[C@H]1O[C@@H](n2cnc3c(OC)nc(N)nc32)[C@](C)(C#N)[C@@H]1O)Oc1ccccc1 (some centres unmarked)
EC50 (replicon cells (1b-Con1); Hepatitis C virus, 72 h): 2.1 µM

COc1nc(N)nc2c1ncn2[C@@H]1O[C@H](COP(=O)(N[C@@H](C)C(=O)OC(C)C)Oc2ccccc2)[C@@H](O)[C@@]1(C)C#N (some centres unmarked)
Cytotoxicity (replicon cells): >100 µM
EC50 (replicon cells (1b-Con1); Hepatitis C virus, 72 h): 2.2 µM

COc1nc(N)nc2c1ncn2[C@@H]1O[C@H](COP(=O)(N[C@@H](C)C(=O)OC(C)C)Oc2ccccc2OC(C)=O)[C@@H](O)[C@@]1(C)C#N (some centres unmarked)
Cytotoxicity (replicon cells): 15 µM
EC50 (replicon cells (1b-Con1); Hepatitis C virus, 72 h): 8.9 µM

CC(C)OP1(=O)OC[C@H]2O[C@@H](n3ccc(=O)[nH]c3=O)[C@](C)(C#N)[C@@H]2O1 (some centres unmarked)
Cytotoxicity (replicon cells): >100 µM
EC50 (replicon cells (1b-Con1); Hepatitis C virus, 72 h): 1.3 µM

CC(C)COC(=O)[C@H](C)NP(=O)(OC[C@H]1O[C@@H](n2ccc(N)nc2=O)[C@](C)(C#N)[C@@H]1O)Oc1ccccc1 (some centres unmarked)
Cytotoxicity (replicon cells): 92 µM
EC50 (replicon cells (1b-Con1); Hepatitis C virus, 72 h): 0.4 µM

CCC(NP(=O)(OC[C@H]1O[C@@H](n2cnc3c(OC)nc(N)nc32)[C@](C)(C#N)[C@@H]1O)Oc1ccccc1)C(=O)OC(C)C (some centres unmarked)
Cytotoxicity (replicon cells): >100 µM
EC50 (replicon cells (1b-Con1); Hepatitis C virus, 72 h): 2.2 µM

CCOc1nc(N)nc2c1ncn2[C@@H]1O[C@@H]2COP(=O)(OC3CCC3)O[C@H]2[C@@]1(C)C#N (some centres unmarked)
Cytotoxicity (replicon cells): >100 µM
EC50 (replicon cells (1b-Con1); Hepatitis C virus, 72 h): 1.2 µM

CC(=O)Nc1ccn([C@@H]2O[C@H](CO)[C@@H](O)[C@@]2(C)C#N)c(=O)n1 [Compound 1]
EC50 (HCV replicon cells (1b); Hepatitis C virus, 72 h): 14 µM

C[C@@]1(C#N)[C@H](O)[C@@H](CO)O[C@H]1n1ccc(=O)[nH]c1=O [Compound 2, 1-[(2R,3R,4S,5R)-3-cyano-4-hydroxy-5-(hydroxymethyl)-3-methyloxolan-2-yl]-1,2,3,4-tetrahydropyrimidine-2,4-dione]
EC50 (HCV replicon cells (1b)): 12.6 µM

C[C@@]1(C#N)[C@H](O)[C@@H](CO)O[C@H]1n1ccc(=O)[nH]c1=O [Compound 3]
EC50 (HCV replicon cells (1b)): > 66 µM

CCOc1nc(NC(C)=O)nc2c1ncn2[C@@H]1O[C@H](CO)[C@@H](O)[C@@]1(C)C#N [Compound 4]
EC50 (HCV replicon cells (1b); Hepatitis C virus, 72 h): 100 µM

CCOc1nc(N)nc2c1ncn2[C@@H]1O[C@H](CO)[C@@H](O)[C@@]1(C)C#N [Compound 5]
EC50 (HCV replicon cells (1b); Hepatitis C virus, 72 h): > 100 µM

CCOc1nc(N)nc2c1ncn2[C@@H]1O[C@H](COP(=O)(N[C@@H](C)C(=O)OC)Oc2ccccc2)[C@@H](O)[C@@]1(C)C#N (some centres unmarked) [Compound 6]
EC50 (HCV replicon cells (1b); Hepatitis C virus, 72 h): 1.4 µM

CCCCOC(=O)[C@H](C)NP(=O)(OC[C@H]1O[C@@H](n2cnc3c(OCC)nc(N)nc32)[C@](C)(C#N)[C@@H]1O)Oc1cccc2ccccc12 (some centres unmarked) [Compound 7]
EC50 (HCV replicon cells (1b); Hepatitis C virus, 72 h): 1 µM

CCOC(=O)[C@H](C)NP(=O)(OC[C@H]1O[C@@H](n2cnc3c(OCC)nc(N)nc32)[C@](C)(C#N)[C@@H]1O)Oc1ccccc1 (some centres unmarked) [Compound 8]
EC50 (HCV replicon cells (1b); Hepatitis C virus, 72 h): 11.7 µM

CCOc1nc(N)nc2c1ncn2[C@@H]1O[C@H](COP(=O)(N[C@@H](C)C(=O)OCC(C)(C)C)Oc2ccccc2)[C@@H](O)[C@@]1(C)C#N (some centres unmarked) [Compound 9]
EC50 (HCV replicon cells (1b); Hepatitis C virus, 72 h): 0.7 µM

CCOc1nc(N)nc2c1ncn2[C@@H]1O[C@H](COP(=O)(N[C@@H](C)C(=O)OC(C)C)Oc2ccccc2)[C@@H](O)[C@@]1(C)C#N (some centres unmarked) [Compound 10]
EC50 (HCV replicon cells (1b); Hepatitis C virus, 72 h): 15 µM

CCOC(=O)[C@H](C)NP(=O)(OC[C@H]1O[C@@H](n2cnc3c(OCC)nc(N)nc32)[C@](C)(C#N)[C@@H]1O)Oc1ccc(F)cc1 (some centres unmarked) [Compound 11]
EC50 (HCV replicon cells (1b); Hepatitis C virus, 72 h): 17 µM

CCOC(=O)[C@H](C)NP(=O)(OC[C@H]1O[C@@H](n2cnc3c(OCC)nc(N)nc32)[C@](C)(C#N)[C@@H]1O)Oc1ccc(Cl)cc1 (some centres unmarked) [Compound 12]
EC50 (HCV replicon cells (1b); Hepatitis C virus, 72 h): 1.7 µM

CCCCOC(=O)[C@H](C)NP(=O)(OC[C@H]1O[C@@H](n2cnc3c(OCC)nc(N)nc32)[C@](C)(C#N)[C@@H]1O)Oc1ccccc1 (some centres unmarked) [Compound 13]
EC50 (HCV replicon cells (1b); Hepatitis C virus, 72 h): 1.5 µM

COC(=O)[C@H](C)NP(=O)(OC[C@H]1O[C@@H](n2ccc(=O)[nH]c2=O)[C@](C)(C#N)[C@@H]1O)Oc1ccccc1 (some centres unmarked) [Compound 14]
EC50 (HCV replicon cells (1b); Hepatitis C virus, 72 h): 11 µM

C[C@H](NP(=O)(OC[C@H]1O[C@@H](n2ccc(=O)[nH]c2=O)[C@](C)(C#N)[C@@H]1O)Oc1ccccc1)C(=O)OCC(C)(C)C (some centres unmarked) [Compound 15]
EC50 (HCV replicon cells (1b); Hepatitis C virus, 72 h): 5 µM

CCOC(=O)[C@H](C)NP(=O)(OC[C@H]1O[C@@H](n2ccc(=O)[nH]c2=O)[C@](C)(C#N)[C@@H]1O)Oc1ccccc1 (some centres unmarked) [Compound 16]
EC50 (HCV replicon cells (1b); Hepatitis C virus, 72 h): 51 µM

COC(=O)[C@H](C)NP(=O)(OC[C@H]1O[C@@H](n2ccc(=O)[nH]c2=O)[C@](C)(C#N)[C@@H]1O)Oc1ccc(Cl)cc1 (some centres unmarked) [Compound 17]
EC50 (HCV replicon cells (1b); Hepatitis C virus, 72 h): 13 µM

CCCCOC(=O)[C@H](C)NP(=O)(OC[C@H]1O[C@@H](n2ccc(=O)[nH]c2=O)[C@](C)(C#N)[C@@H]1O)Oc1cccc2ccccc12 (some centres unmarked) [Compound 18]
EC50 (HCV replicon cells (1b); Hepatitis C virus, 72 h): 1 µM

CCOC(=O)[C@H](C)NP(=O)(OC[C@H]1O[C@@H](n2ccc(=O)[nH]c2=O)[C@](C)(C#N)[C@@H]1O)Oc1ccc(Cl)cc1 (some centres unmarked) [Compound 19]
EC50 (HCV replicon cells (1b); Hepatitis C virus, 72 h): 15 µM

CCCCOC(=O)[C@H](C)NP(=O)(OC[C@H]1O[C@@H](n2ccc(N)nc2=O)[C@](C)(C#N)[C@@H]1O)Oc1cccc2ccccc12 (some centres unmarked) [Compound 20]
EC50 (HCV replicon cells (1b); Hepatitis C virus, 72 h): 16 µM

COC(=O)[C@H](C)NP(=O)(OC[C@H]1O[C@@H](n2ccc(N)nc2=O)[C@](C)(C#N)[C@@H]1O)Oc1ccccc1 (some centres unmarked) [Compound 21]
EC50 (HCV replicon cells (1b); Hepatitis C virus, 72 h): 25 µM

C[C@H](NP(=O)(OC[C@H]1O[C@@H](n2ccc(N)nc2=O)[C@](C)(C#N)[C@@H]1O)Oc1ccccc1)C(=O)OCC(C)(C)C (some centres unmarked) [Compound 22]
EC50 (HCV replicon cells (1b); Hepatitis C virus, 72 h): 18 µM

CC(C)OP1(=O)OC[C@H]2O[C@@H](n3ccc(N)nc3=O)[C@](C)(C#N)[C@@H]2O1 (some centres unmarked) [Compound 23]
EC50 (HCV replicon cells (1b); Hepatitis C virus, 72 h): 6.7 µM

CC(C)OP1(=O)OC[C@H]2O[C@@H](n3ccc(N)nc3=O)[C@](C)(C#N)[C@@H]2O1 (some centres unmarked) [Compound 24]
EC50 (HCV replicon cells (1b)): 7.9 µM

CCOP1(=O)OC[C@H]2O[C@@H](n3ccc(N)nc3=O)[C@](C)(C#N)[C@@H]2O1 (some centres unmarked) [Compound 25]
EC50 (HCV replicon cells (1b); Hepatitis C virus, 72 h): > 100 µM

C[C@@]1(C#N)[C@@H]2OP(=O)(Oc3ccccc3)OC[C@H]2O[C@H]1n1ccc(N)nc1=O (some centres unmarked) [Compound 26]
EC50 (HCV replicon cells (1b); Hepatitis C virus, 72 h): 62 µM

C[C@@]1(C#N)[C@@H]2OP(=O)(OC3CCC3)OC[C@H]2O[C@H]1n1ccc(N)nc1=O (some centres unmarked) [Compound 27]
EC50 (HCV replicon cells (1b); Hepatitis C virus, 72 h): > 100 µM

CCOc1nc(N)nc2c1ncn2[C@@H]1O[C@@H]2COP(=O)(OC(C)C)O[C@H]2[C@@]1(C)C#N (some centres unmarked) [Compound 28]
EC50 (HCV replicon cells (1b); Hepatitis C virus, 72 h): 2.7 µM

C[C@@]1(C#N)[C@H](O)[C@@H](COP(=O)(O)OP(=O)(O)OP(=O)(O)O)O[C@H]1n1ccc(N)nc1=O [Compound 29]
IC50 [1]: 0.5 µM

CC(C)OC(=O)[C@H](C)NP(=O)(OC[C@H]1O[C@@H](n2ccc(=O)[nH]c2=O)[C@](C)(C#N)[C@@H]1O)Oc1ccccc1Cl (some centres unmarked) [Compound 30]
EC50 (HCV replicon cells (1b); Hepatitis C virus, 72 h): 571 µM

CC(C)COC(=O)[C@H](C)NP(=O)(OC[C@H]1O[C@@H](n2ccc(=O)[nH]c2=O)[C@](C)(C#N)[C@@H]1O)Oc1ccccc1 (some centres unmarked) [drawing 352]
Cytotoxicity (replicon cells): >100 µM
EC50 (replicon cells (1b-Con1)): 1.4 µM

CCCCOC(=O)[C@H](C)NP(=O)(OC[C@H]1O[C@@H](n2ccc(=O)[nH]c2=O)[C@](C)(C#N)[C@@H]1O)Oc1cccc2ccccc12 (some centres unmarked) [drawing 354]
Cytotoxicity (replicon cells): >100 µM
EC50 (replicon cells (1b-Con1); Hepatitis C virus, 72 h): 2.7 µM

CC(C)OC(=O)[C@H](C)NP(=O)(OC[C@H]1O[C@@H](n2ccc(N)nc2=O)[C@](C)(C#N)[C@@H]1O)Oc1ccccc1 (some centres unmarked) [drawing 359]
Cytotoxicity (replicon cells): >100 µM
EC50 (replicon cells (1b-Con1); Hepatitis C virus, 72 h): 5.2 µM

CC(C)COC(=O)[C@H](C)NP(=O)(OC[C@H]1O[C@@H](n2ccc(=O)[nH]c2=O)[C@](C)(C#N)[C@@H]1O)Oc1ccccc1 (some centres unmarked) [drawing 360]
Cytotoxicity (replicon cells): >100 µM
EC50 (replicon cells (1b-Con1); Hepatitis C virus, 72 h): 1.3 µM
